Laboratory results from patent publication US20240262842A1, “SMALL MOLECULE INHIBITORS OF KRAS G12C MUTANT” (Merck Sharp & Dohme LLC, priority 2021, published 2024).
Read-outs that look alike come from different tables or passages of the source.

How the values were obtained:
MIA PaCa-2 cells = assay: Growth inhibition activity on KRAS-G12C mutant cell line (CellTiter-Glo 3D); type: cell-based, human; details: MIA PaCa-2, 3-day culture with compound
Outline: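 MIA PaCa-2 cells in RPMI1640 with 10% FBS, U-bottom wells, cultured 1 day before compound (0.2% DMSO final), then 3 days at 37 °C, 5% CO2. Viability by CellTiter-Glo 3D luminescence; growth inhibition versus untreated wells gives IC50 (nM).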

[1] = target: T1, interaction between GMPPNP-bound recombinant K-Ras4B G12C mutant protein and cRAF RAS-binding domain (cRAF-RBD) (Homo sapiens, UniProt P01116, G12C); assay: Inhibitory activity on interaction between KRAS G12C and cRAF (Alpha technology)
T1 construct: His-tag (N)
T1 sequence (P01116 with tags, fused parts or gaps isoform P01116-2 G12C): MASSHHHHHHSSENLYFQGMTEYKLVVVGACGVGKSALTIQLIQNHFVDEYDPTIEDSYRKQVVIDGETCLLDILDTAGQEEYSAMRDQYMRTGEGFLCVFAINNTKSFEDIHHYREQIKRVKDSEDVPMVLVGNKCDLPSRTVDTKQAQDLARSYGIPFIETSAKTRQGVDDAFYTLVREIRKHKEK
Outline: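 His-tagged K-Ras4B G12C (aa 1-169), GMPPNP-loaded, preincubated with compound 1 h at 25° C in pH 7.5 Tris buffer with MgCl2, TCEP, Tween 20. cRAF-RBD (aa 50-132) and Alpha reagents then added for 1.5 h; Alpha signal normalised to DMSO (0%) and GDP-bound KRAS (100%); IC50 from dose titration.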

[2] = Homo sapiens, MIA PaCa-2, 72 h, Table 3
[3] = GMPPNP-bound KRAS G12C incubated with compound 25° C. 1 hour, Table 2, read-out: IC50
[4] = IC50, GMPPNP-bound KRAS G12C incubated with compound 25° C. 1 hour, Table 2
[5] = Homo sapiens, MIA PaCa-2, 72 h, Table 3-1
[6] = GMPPNP-bound KRAS G12C incubated with compound 25° C. 1 hour, Table 2-1, read-out: IC50
[7] = IC50, GMPPNP-bound KRAS G12C incubated with compound 25° C. 1 hour, Table 2-1

SMILES	IC50 (MIA PaCa-2 cells; [2]) [nM]	IC50 [1, 3] [nM]	IC50 (MIA PaCa-2 cells; [5]) [nM]	IC50 [1, 6] [nM]	other results
CO[C@H]1CC[C@H](NC/C=C/C(=O)Nc2ccc(C(=O)c3cc4c5c(cccn35)-c3c(C(F)(F)F)cc5c(nc(C)n5C)c3OCC4)cc2)CC1 [Example 37, (E)-N-(4-(9,10-dimethyl-7-(trifluoromethyl)-13,14-dihydro-9H-imidazo[4″,5″:5′,6′]benzo[1′,2′:2,3]oxocino[4,5,6-hi]indolizine-2-carbonyl)phenyl)-4-(((1,4r)-4-methoxycyclohexyl)amino)but-2-enamide]	28	40	–	–	–
Cc1nc2c3c(c(C(F)(F)F)cc2n1C)-c1cccn2c(C(=O)c4cc(F)c(NC(=O)/C=C/CNC5(C)CCOCC5)c(F)c4)cc(c12)CCO3 [Example 39]	12	8	–	–	–
Cc1nc2c3c(c(C(F)(F)F)cc2n1C)-c1cccn2c(C(=O)c4cc(F)c(NC(=O)/C=C/CNC5(C(=O)O)CCCCC5)c(F)c4)cc(c12)CCO3 [Example 40]	1600	4700	–	–	–
Cc1nc2c3c(c(C(F)(F)F)cc2n1C)-c1cccn2c(C(=O)c4cc(F)c(NC(=O)/C=C/CNC5(C)CCOC5)c(F)c4)cc(c12)CCO3 (stereo not drawn) [Example 41]	4	10	–	–	–
CO[C@H]1CC[C@H](NC/C=C/C(=O)Nc2c(F)cc(C(=O)c3cc4c5c(cccn35)-c3c(C(F)(F)F)cc5c(nc(C)n5C)c3OC(C)C4)cc2F)CC1 (stereo partly drawn) [Example 42, (E)-N-(2,6-difluoro-4-(9,10,13-trimethyl-7-(trifluoromethyl)-13,14-dihydro-9H-imidazo[4″,5″:5′,6′]benzo[1′,2′:2,3]oxocino[4,5,6-hi]indolizine-2-carbonyl)phenyl)-4-(((1r,4r)-4-methoxycyclohexyl)amino)but-2-enamide]	9	18	–	–	–
CO[C@H]1CC[C@H](NC/C=C/C(=O)Nc2c(F)cc(C(=O)c3cc4c5c(cccn35)-c3c(C(F)(F)F)cc5c(nc(C)n5C)c3OC(C)C4)cc2F)CC1 (stereo partly drawn) [Example 43, (E)-N-(2,6-difluoro-4-(9,10,13-trimethyl-7-(trifluoromethyl)-13,14-dihydro-9H-imidazo[4″,5″:5′,6′]benzo[1′,2′:2,3]oxocino[4,5,6-hi]indolizine-2-carbonyl)phenyl)-4-(((1r,4r)-4-methoxycyclohexyl)amino)but-2-enamide]	–	17	–	–	IC50 (MIA PaCa-2 cells; Table 3): 14 nM
CO[C@H]1CC[C@H](NC/C=C/C(=O)Nc2c(F)cc(C(=O)c3cn4c5c(cccc35)-c3c(C)cc5c(nc(C)n5C)c3N(C)CC4)cc2F)CC1 [Example 44]	10	–	–	–	IC50 [1, 4]: 30 nM
CO[C@H]1CC[C@H](NC/C=C/C(=O)Nc2c(F)cc(C(=O)c3cn4c5c(cccc35)-c3c(C(F)(F)F)cc5c(nc(C)n5C)c3N(C)CC4)cc2F)CC1 [Example 45, (E)-N-(2,6-difluoro-4-(8,9,11-trimethyl-6-(trifluoromethyl)-8,11,12,13-tetrahydroimidazo[4′ 5,6][1,4]diazocino[7,8,1-hi]indole-2-carbonyl)phenyl)-4-(((1,4r)-4-methoxycyclohexyl)amino)but-2-enamide]	5	–	–	–	IC50 [1, 4]: 21 nM
CO[C@H]1CC[C@H](NC/C=C/C(=O)Nc2c(F)cc(C(=O)c3nn4c5c(cccc35)-c3c(C(F)(F)F)cc5c(nc(C)n5C)c3OCC4)cc2F)CC1 [Example 46, (E)-N-(4-(8,9-dimethyl-6-(trifluoromethyl)-12,13-dihydro-8H-imidazo[4″,5″:3′4′]benzo[1′,2′:7,8][1,4]oxazocino[6,5,4-hi]indazole-2-carbonyl)-2,6-difluorophenyl)-4-(((1r,4r)-4-methoxycyclohexyl)amino)but-2-enamide]	57	140	–	–	–
CO[C@H]1CC[C@H](NC/C=C/C(=O)Nc2c(F)cc(C(=O)c3cn4c5c(cccc35)-c3c(C)cc5c(nc(C)n5C)c3N(C)C(=O)C4)cc2F)CC1 [Example 47, (E)-N-(2,6-difluoro-4-(6,8,9,11-tetramethyl-12-oxo-8,11,12,13-tetrahydroimidazo[4″,5″:5′,6′]benzo[1′,2′:5,6][1,4]diazocino[7,8,1-hi]indole-2-carbonyl)phenyl)-4-(((1r,4r)-4-methoxycyclohexyl)amino)but-2-enamide]	59	–	–	–	IC50 [1, 4]: 23 nM
CO[C@H]1CC[C@H](NC/C=C/C(=O)Nc2c(F)cc(C(=O)c3cn4c5c(cccc35)-c3c(C(F)(F)F)ccc(=O)n3CCC4)cc2F)CC1 [Example 49, (E)-N-(2,6-difluoro-4-(8-oxo-11-(trifluoromethyl)-5,6-dihydro-4H,8H-pyrido[2′,1′:4,5][1,5]diazocino[3,2,1-hi]indole-1-carbonyl)phenyl-4-((1r,4r)-4-methoxycyclohexyl)amino)but-2-enamide]	150	–	–	–	IC50 [1, 4]: 260 nM
Cc1nc2c3c(c(C(F)(F)F)cc2n1C)-c1cccn2c(C(=O)c4cc(F)c(NC(=O)/C=C/CNC5COC5)c(F)c4)cc(c12)CCO3 [Example 51, (E)-N-(4-(9,10-dimethyl-7-(trifluoromethyl)-13,14-dihydro-9H-imidazo-[4″,5″:5′,6′]benzo[1′,2′: 2,3]oxocino[4,5,6-hi]-indolizine-2-carbonyl)-2,6-difluorophenyl)-4-(oxetan-3-ylamino)but-2-enamide]	–	–	15.9	45.4	–
CO[C@H]1CC[C@H](NC/C=C/C(=O)Nc2c(F)cc(C(=O)c3cc4c5c(cccn35)-c3c(Cl)cc5c(nc(C)n5C)c3OCC4)cc2F)CC1 [Example 53]	–	–	31.9	22.2	–
Cc1nc2c3c(c(C(F)(F)F)cc2n1C)-c1cccn2c(C(=O)c4cc(F)c(NC(=O)/C=C/CNC(C)(C)CF)c(F)c4)cc(c12)CCO3 [Example 56]	–	–	12.6	12.4	–
Cc1cc2c(nc(C)n2C)c2c1-c1cccn3c(C(=O)c4cc(F)c(NC(=O)/C=C/CNC5(C)CCOCC5)c(F)c4)cc(c13)CCN2C [Example 57, (E)-N-(2,6-difluoro-4-(7,9,10,12-tetramethyl-9,12,13,14-tetrahydro-imidazo[4″,5″:5′,6′]benzo-[1′,2′:2,3]azocino[4,5,6-hi]indolizine-2-carbonyl)-phenyl)-4-((4-methyltetra-hydro-2H-pyran-4-yl)-amino)but-2-enamide]	–	–	68.5	78.3	–
Cc1c2c3c(cccn3c1C(=O)c1cc(F)c(NC(=O)/C=C/CNC3(C)COC3)c(F)c1)-c1c(C(F)(F)F)cc3c(nc(C)n3C)c1OCC2 [Example 58, (E)-N-(2,6-difluoro-4-(1,9,10-trimethyl-7-(tri-fluoromethyl)-13,14-dihydro-9H-imidazo-[4″,5″:5′,6′]benzo[1′,2′: 2,3]oxocino[4,5,6-hi]-indolizine-2-carbonyl)-phenyl)-4-((3-methyl-oxetan-3-yl)amino)but-2-enamide]	–	–	70.2	77.9	–
CO[C@H]1CC[C@H](NC/C=C/C(=O)Nc2ccc(C(=O)c3cc4c5c(cccn35)-c3c(C(F)(F)F)cc5c(nc(C)n5C)c3OCC4)nc2)CC1 [Example 59, (E)-N-(6-(9,10-dimethyl-7-(trifluoromethyl)-13,14-dihydro-9H-imidazo-[4″,5″:5′,6′]benzo[1′,2′: 2,3]oxocino[4,5,6-hi]-indolizine-2-carbonyl)-pyridin-3-yl)-4-(((1r,4r)-4-methoxycyclohexyl)-amino)but-2-enamide]	–	–	19.8	27.6	–
Cc1nc2c3c(c(C(F)(F)F)cc2n1C)-c1cccn2c(C(=O)c4ccc(NC(=O)/C=C/CNC5(C)COC5)cn4)cc(c12)CCO3 [Example 60, (E)-N-(6-(9,10-dimethyl-7-(trifluoromethyl)-13,14-dihydro-9H-imidazo-[4″,5″:5′,6′]benzo[1′,2′: 2,3]oxocino[4,5,6-hi]-indolizine-2-carbonyl)-pyridin-3-yl)-4-((3-meth-yloxetan-3-yl)amino)but-2-enamide]	–	–	32.1	73.2	–
CN1CCn2cc(C(=O)c3cc(F)c(NC(=O)/C=C/CNC4(C)COC4)c(F)c3)c3cccc(c32)-c2c(C(F)(F)F)cc3c(ncn3C)c21 [Example 61, (E)-N-(4-(8,11-dimethyl-6-(trifluoromethyl)-8,11,12,13-tetrahydro-imidazo[4″,5″:5′,6′]benzo-[1′,2′:5,6][1,4]diazocino-[7,8,1-hi]indole-2-carbon-yl)-2,6-difluorophenyl)-4-((3-methyloxetan-3-yl)-amino)but-2-enamide]	–	–	16.3	–	IC50 [1, 7]: 76.3 nM
CCN1CCn2cc(C(=O)c3cc(F)c(NC(=O)/C=C/CN[C@H]4CC[C@H](OC)CC4)c(F)c3)c3cccc(c32)-c2c(C)cc3c(nc(C)n3C)c21 [Example 66, (E)-N-(4-(11-ethyl-6,8,9-trimethyl-8,11,12,13-tetra-hydroimidazo[4″,5″:5′,6′]-benzo[1′,2′:5,6][1,4]diazo-cino[7,8,1-hi]indole-2-carbonyl)-2,6-difluoro-phenyl)-4-(((1r,4r)-4-meth-oxycyclohexyl)amino)but-2-enamide]	–	–	30.1	–	IC50 [1, 7]: 53.4 nM
CO[C@H]1CC[C@H](NC/C=C/C(=O)Nc2ccc(C(=O)c3cc4c5c(cccn35)-c3c(C(F)(F)F)cc5c(nc(C)n5C)c3OCC4)cc2F)CC1 [Example 67, (E)-N-(4-(9,10-dimethyl-7-(trifluoromethyl)-13,14-dihydro-9H-imidazo-[4″,5″:5′,6′]benzo[1′,2′: 2,3]oxocino[4,5,6-hi]-indolizine-2-carbonyl)-2-fluorophenyl)-4-(((1r,4r)-4-methoxycyclohexyl)-amino)but-2-enamide]	–	–	8.22	22	–
